Consider 13 compounds from US11130769B2 (Prelude Therapeutics Incorporated, priority 2018, dated 2021).

The target of one assay is MCL-1 (Homo sapiens (Human), UniProt Q07820). Put plainly: Cell free Mcl-1:Bim affinity assay (fluorescence polarization competition). Conditions: 15 nM MCL-1, 5 nM FITC-Bim, 1 hour at room temperature; class symbols; read-out: BIM_Ki. In kind it is binding. The method, boiled down:
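Compounds competed with FITC-labelled Bim peptide (5 nM) for MCL-1 (15 nM) in HEPES/NaCl buffer with 1% DMSO, 1 h at room temperature. Fluorescence polarization (535 nm emission) gave % inhibition versus DMSO and positive controls; IC50 from 10-point curves, converted to Ki by the Nikolovska-Coleska equation.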
On the technique in general: In fluorescence polarisation assays a small probe gives low polarisation when free and higher when bound to something large.

Another assay deals with H929 cells. Put plainly: Cell viability assay (H929 10 FBS). The assay is classed as cell-based. The note with it: read-out: H929_10FBS IC50. The method, boiled down: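 H929 cells, 4000/well, in RPMI 1640 with 10% FBS, sodium pyruvate, HEPES and glucose were exposed to compound 24 h at 37 °C. Viability read as luminescence after 30-60 min at RT with CellTiter-Glo or ATPlite 1 Step.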

Where [1] appears, read: Homo sapiens, NCI-H929, 24 hours.

Structures are written as SMILES. Like-named read-outs stand apart in the source and are kept apart here.

MCL-1, sequence (Q07820 whole entry): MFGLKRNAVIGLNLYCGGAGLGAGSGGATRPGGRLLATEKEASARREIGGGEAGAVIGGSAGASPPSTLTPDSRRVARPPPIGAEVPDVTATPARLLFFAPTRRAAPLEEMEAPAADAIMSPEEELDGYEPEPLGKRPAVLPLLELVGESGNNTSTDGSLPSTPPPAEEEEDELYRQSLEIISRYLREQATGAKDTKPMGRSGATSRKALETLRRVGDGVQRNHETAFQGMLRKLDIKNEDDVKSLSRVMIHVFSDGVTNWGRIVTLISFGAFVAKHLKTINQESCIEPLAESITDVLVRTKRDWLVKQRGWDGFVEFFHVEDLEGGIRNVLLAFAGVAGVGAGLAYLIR

As a reminder, the IC50 is the concentration that inhibits the measured activity by half. In the case of `CO[C@@H]1/C=C/COCC(=O)NS(=O)(=O)c2ccc3c(c2)N(C[C@@H]2CC[C@H]21)C[C@@]1(CCCc2cc(Cl)ccc21)CO3` [Example 112, (3R,6R,7R,8E,22S)-6′-Chloro-7-methoxy-15,15-dioxo-spiro[[11,20]dioxa[15]thia-1,14-diazatetracyclo[14.7.2.03,6.019,24]pentacosa[8,16(25),17,19(24)]tetraene-22,1′-tetralin]-13-one], the Ki on MCL-1 fell in the range of 1 to 100 nM. In the assay on H929 cells (setting [1]), the IC50 was more than 1000 nM.
The corresponding values for `CN(C)C(=O)O[C@H]1/C=C/CNC(C)(C)C(=O)NS(=O)(=O)c2ccc3c(c2)N(C[C@@H]2CC[C@H]21)C[C@@]1(CCCc2cc(Cl)ccc21)CO3` [Example 209, [(3R,6R,7S,8E,22S)-6′-Chloro-12,12-dimethyl-13,15,15-trioxo-spiro[20-oxa-15-thia-1,11,14-triazatetracyclo[14.7.2.03,6.019,24]pentacosa-8,16,18,24-tetraene-22,1′-tetralin]-7-yl] N,N-dimethylcarbamate] are less than 1 nM and less than 500 nM.
As to `CN1C/C=C/[C@H](OCCN2CC(F)(F)C2)[C@@H]2CC[C@H]2CN2C[C@@]3(CCCc4cc(Cl)ccc43)COc3ccc(cc32)S(=O)(=O)NC(=O)C1(C)C` [Example 287, (3R,6R,7S,8E,22S)-6′-Chloro-7-[2-(3,3-difluoroazetidin-1-yl)ethoxy]-11,12,12-trimethyl-15,15-dioxo-spiro[20-oxa-15-thia-1,11,14-triazatetracyclo[14.7.2.03,6.019,24]pentacosa-8,16,18,24-tetraene-22,1′-tetralin]-13-one], the Ki at MCL-1 was less than 1 nM. For the same compound, the IC50 with H929 cells (setting [1]) is less than 500 nM.
`CN(C(=O)O[C@H]1/C=C/COC(C)(C)C(=O)NS(=O)(=O)c2ccc3c(c2)N(C[C@@H]2CC[C@H]21)C[C@@]1(CCOc2cc(Cl)ccc21)CO3)[C@@H]1CCOC1` [Example 301, [(3R,6R,7S,8E,22S)-7′-Chloro-12,12-dimethyl-13,15,15-trioxo-spiro[11,20-dioxa-15-thia-1,14-diazatetracyclo[14.7.2.03,6.019,24]pentacosa-8,16,18,24-tetraene-22,4′-chromane]-7-yl] N-methyl-N-[(3R)-tetrahydrofuran-3-yl]carbamate]: the Ki at MCL-1 is less than 1 nM. The IC50 in the assay with H929 cells (setting [1]) is less than 500 nM.
Turning to `CN1C/C=C/[C@H](OC(=O)N[C@@H]2CCOC2)[C@@H]2CC[C@H]2CN2C[C@@]3(CCCc4cc(Cl)ccc43)COc3ccc(cc32)S(=O)(=O)NC(=O)C12CCC2` [Example 243, [(3R,6R,7S,8E,22S)-6′-Chloro-11-methyl-12,12-(1,3-propylene)-13,15,15-trioxo-spiro[20-oxa-15-thia-1,11,14-triazatetracyclo[14.7.2.03,6.019,24]pentacosa-8,16,18,24-tetraene-22,1′-tetralin]-7-yl] N-[(3R)-tetrahydrofuran-3-yl]carbamate], on MCL-1, the Ki is less than 1 nM. The half-maximal inhibitory concentration (IC50) with H929 cells (setting [1]) was less than 500 nM.
In the case of `COCCN1CCN(C(=O)O[C@H]2/C=C/COC(C)(C)C(=O)NS(=O)(=O)c3ccc4c(c3)N(C[C@@H]3CC[C@H]32)C[C@@]2(CCCc3cc(Cl)ccc32)CO4)CC1` [Example 46, [(3R,6R,7S,8E,22S)-6′-Chloro-12,12-dimethyl-13,15,15-trioxo-spiro[11,20-dioxa-15-thia-1,14-diazatetracyclo[14.7.2.03,6.019,24]pentacosa-8,16,18,24-tetraene-22,1′-tetralin]-7-yl] 4-(2-methoxyethyl)piperazine-1-carboxylate], at MCL-1, the Ki was less than 1 nM. Moreover, the IC50 in the assay on H929 cells (setting [1]) was less than 500 nM.
The corresponding values for `CN(C)C(=O)O[C@H]1/C=C/COC(C)(C)C(=O)NS(=O)(=O)c2ccc3c(c2)N(C[C@@H]2CC[C@H]21)C[C@@]1(CCCc2cc(Cl)ccc21)CO3` [Example 34, [(3R,6R,7S,8E,22S)-6′-Chloro-12,12-dimethyl-3,5,5-trioxo-spiro[11,20-dioxa-15-thia-1,14-diazatetracyclo[14.7.2.03,6.019,24]pentacosa-8,16,18,24-tetraene-22,1′-tetralin]-7-yl] N,N-dimethylcarbamate] are less than 1 nM and less than 500 nM.
The corresponding values for `CC1(C)OC/C=C/[C@H](OC(=O)NC2CCC2)[C@@H]2CC[C@H]2CN2C[C@@]3(CCCc4cc(Cl)ccc43)COc3ccc(cc32)S(=O)(=O)NC1=O` [Example 184, [(3R,6R,7S,8E,22S)-6′-Chloro-12,12-dimethyl-13,15,15-trioxo-spiro[11,20-dioxa-15-thia-1,14-diazatetracyclo[14.7.2.03,6.019,24]pentacosa-8,16,18,24-tetraene-22,1′-tetralin]-7-yl] N-cyclobutylcarbamate] are less than 1 nM and less than 500 nM.
The corresponding values for `CC1(C)OC/C=C/[C@H](OC(=O)N2CC3CCC(C2)O3)[C@@H]2CC[C@H]2CN2C[C@@]3(CCCc4cc(Cl)ccc43)COc3ccc(cc32)S(=O)(=O)NC1=O` [Example 170, [(3R,6R,7S,8E,22S)-6′-Chloro-12,12-dimethyl-13,15,15-trioxo-spiro[11,20-dioxa-15-thia-1,14-diazatetracyclo[14.7.2.03,6.019,24]pentacosa-8,16,18,24-tetraene-22,1′-tetralin]-7-yl] 8-oxa-3-azabicyclo[3.2.1]octane-3-carboxylate] are less than 1 nM and less than 1000 nM.
For the compound `CO[C@@H]1/C=C\CCC2(CC2)C(=O)NS(=O)(=O)c2ccc3c(c2)N(C[C@@H]2CC[C@H]21)C[C@@]1(CCCc2cc(Cl)ccc21)CO3` [Example 70, (3R,6R,7R,8Z,22S)-6′-chloro-7-methoxy-12,12-ethylene-15,15-dioxo-spiro[20-oxa-15-thia-1,14-diazatetracyclo[14.7.2.03,6.019,24]pentacosa[8,16(25),17,19(24)]tetraene-22,1′-tetralin]-13-one], the Ki on MCL-1 lay in the range of 1 to 100 nM. For the same compound, the IC50 in the assay with H929 cells (24 hours) is more than 1000 nM.
For `CO[C@@H]1/C=C/C[C@H](C)[C@@H](CO)C(=O)NS(=O)(=O)c2ccc3c(c2)N(C[C@@H]2CC[C@H]21)C[C@@]1(CCCc2cc(Cl)ccc21)CO3` [Example 94, (3R,6R,7R,8E,11S,12S,22S)-6′-Chloro-12-(hydroxymethyl)-7-methoxy-11-methyl-15,15-dioxo-spiro[20-oxa-15-thia-1,14-diazatetracyclo[14.7.2.03,6.019,24]pentacosa-8,16,18,24-tetraene-22,1′-tetralin]-13-one], on MCL-1, the Ki was less than 1 nM. The IC50 in the assay with H929 cells (setting [1]) is more than 1000 nM.
The corresponding values for `CO[C@H]1/C=C/CCCCC(=O)NS(=O)(=O)c2ccc3c(c2)N(C[C@@H]2CC[C@H]21)C[C@@]1(CCCc2cc(Cl)ccc21)CO3` [Example 83, (3R,6R,7S,8E,23S)-6′-Chloro-7-methoxy-16,16-dioxo-spiro[21-oxa-16-thia-1,15-diazatetracyclo[15.7.2.03,6.020,25]hexacosa-8,17,19,25-tetraene-23,1′-tetralin]-14-one] are 1 to 100 nM and more than 1000 nM.
The corresponding values for `CCOC(=O)N(C)[C@@H]1/C=C/CN(C)C(C)(C)C(=O)NS(=O)(=O)c2ccc3c(c2)N(C[C@@H]2CC[C@H]21)C[C@@]1(CCCc2cc(Cl)ccc21)CO3` [Example 253, Ethyl N-methyl-N-[(3R,6R,7R,8E,22S)-6′-chloro-11,12,12-trimethyl-13,15,15-trioxo-spiro[20-oxa-15-thia-1,11,14-triazatetracyclo[14.7.2.03,6.019,24]pentacosa-8,16(25),17,19(24)-tetraene-22,1′-tetralin]-7-yl]carbamate] are 1 to 100 nM and more than 1000 nM.
